Data taken from patent publication US20230406803A1, “TROPOLONE DERIVATIVES AND TAUTOMERS THEREOF FOR IRON REGULATION IN ANIMALS” (Kinesid Therapeutics, Inc, priority 2020, published 2023).

Legend:
[1] = test system: DMT1-deficient Caco-2 cells; assay: shDMT1-Caco2 55Fe transport assay; assay type: cell-based; conditions: Caco-2
Excerpt: Assay 2: shDMT1-Caco2 ^55Fe Transport Assay to Assess Ligand Ability in Transporting Fe (III)
Cells: DMT1-deficient Caco-2 cells (alias: “shDMT1,” or “4A” cells) were from Grillo et al. Science, 2017, and were cryopreserved in liquid nitrogen prior to use.
Reagents and supplies: ^55FeCl3 was obtained from PerkinElmer (Boston, MA). Iron(III) chloride (FeCl3) hexahydrate was obtained from Sigma. Dulbecco's Modified Eagle Medium (DMEM), fetal bovine serum (FBS), L-glutamine, MEM nonessential amino acids, penicillin-streptomycin, G418, formic acid, methanol, high-purity water, ammonium formate, dimethyl sulfoxide (DMSO) were purchased from Fisher Scientific. Propranolol, atenolol and carbutamide were obtained from Sigma-Aldrich Chemical Company (St Louis, MO). Scintillation cocktail was obtained from Research Product International Co. (Mount Prospect, IL). Stericup filter system (PES membrane, 0.22 um pore size) was purchased from Fisher Scientific. Corning item #3378 24-well transwell insert plates.
Test articles: known compounds hinokitiol and deferiprone were purchased from Sigma. They are tested side by side with the small molecule ligands disclosed in this application. DMSO stocks (10 mM, which is 1,000× of the 10 μM dose level) of hinokitiol or test articles were prepared. A stock solution of 25 mM deferiprone in DMSO was prepared. The DMSO stock solutions were stored at −20° C. or below when not in use.
The growth medium was prepared according to the following table
Apical media (serum free DMEM, 10 mM MES, pH 6.5) was prepared. Apical master mix media was prepared fresh with the addition of 200 nM ^55Fe before each experiment. For the negative control propranolol and atenolol wells, 200 nM of non-radioactive iron was used.
The basolateral media was serum-free DMEM, 10 mM HEPES, 2% bovine serum albumin (BSA), pH 7.4.
For each experiment, cells were seeded into the 24-well transwell plates (0.5 mL of 50,000 cells/mL) with growth media. The basolateral companion plate was loaded with 1 mL of growth media. After 12-24 hr, both the apical and basolateral chamber were replaced with growth media. The apical media was changed 3× per week for 21-28 days, including a media change exactly 48 hr before the assay date.
On the assay day, the TEER values were measured and the average TEER value was obtained. Individual wells with TEER value >35% lower than the average of all wells were excluded. For the qualified wells, the apical layer (twice) and basolaterial (once) chambers were washed with PBS. The basolateral companion plate was then filled with 1 mL of basolateral media. Via addition down the side-wall of the apical well, 300 μL per well of the apical assay master mix, with the indicated dose level of test article, was added. Each dose was tested in triplicate. The plates were incubated (5% CO2 and 90% humidity at 37° C.) for the indicated timepoints. At each indicated timepoint, the basolateral supernatant was gently mixed via pipetting, and 200 μL of the basolateral supernatant was transferred to scintillation vials. To each scintillation counting vial, 5 mL of scintillation cocktail fluid was added. For each scintillation vial, the radioactivity (CPM) was determined with liquid scintillation counter LS6500. The counting time per vial was 5 min.
All raw CPM values are divided by the average value of blank DMSO solution to give a fold of change above the DMSO value. The mean and standard deviation of each compound at each concentration level and at each time point measured was calculated to give the fold change (fc) value. For rank order compounds, the fc value of a ligand at 4 h time point is further divided by the fold change (fc) value of hinokitiol (a positive control compound) at an equimolar concentration to arrive at the FC (normalized fold of change) value. Data reported in Tables 1 and 2 is 4 hr time point FC=fc-ligand @ 3 uM/fc-hino @ 3 μM, and FC hino=1.

[2] = Ligand facilitated Fe(III) efflux from liposomes; assay type: biochemical; design: unit not given here; conditions: efflux rate k at 10 μM ligand concentration; ferrozine absorbance 562 nm, 120 min kinetic read
Method: Assay 1: Ligand Facilitated Fe(III) Efflux from Liposomes
Preparation of POPC (1 palmitoyl-2-oleoyl-sn-glycero-3 phosphocholine): Cholesterol Liposomes
A 1M buffer solution of MES and Tris was prepared by dissolving 121.14 grams of Tris base and 213.25 grams of MES hydrate in 500 mL of MilliQ water and adjusted to pH7.0 using an […] HCl solution before bringing the total volume of the solution to 1 L. A 500 mM solution of FeCl3 was prepared by dissolving 0.811 grams of anhydrous FeCl3 in 10 mL of a 0.1M H2SO4 aqueous solution. Inside buffer is prepared in a 50 mL falcon tube, which was added with 25 mL of MilliQ water, 1.61 g of sodium citrate, 1.5 mL of the above FeCl3 solution, and 2.5 mL of the 1M MES/Tris HCl buffer (pH=7.0), and finally additional MilliQ H2O to bring to a 50 mL final volume.
Lipid solution is prepared by dissolving 206.9 mg of POPC (1-palmitoyl-2-oleoyl-sn-glycero-3-phosphocholine) and 8.6 mg of cholesterol in 10 mL of ethanol.
The lipids solution and the inside buffer solution are independently loaded into 10 mL luer lock syringes for loading into a virgin cartridge on a Precision Nanosystems NanoAssembler to prepare unilamaller liposomes with the following parameters: 7.5 mL total volume, 1.5:1 mixing ratio of inside buffer:lipids solution, 8 mL/min flow rate, ambient temperature, 0.35 mL start waste, and 0.05 mL of end waste. 7.5 mL of liposomes is harvested for purification on a 6-inch long, 1-inch diameter Sephadex G-50 column wetted in 600 mM sodium ascorbate and 50 mM MES/Tris HCl pH 7.0 buffer. This buffer also serves as the column running buffer. The crude liposome solution is carefully loaded with minimal volume of running buffer above the top of the Sphadex, allowed to enter the matrix, and the column is run with the continued addition of running buffer. The eluting liposomes, observed as a milky and turbid solution, are collected until free iron begins to elute (observed as a deep purple color) and the fractions are pooled for phosphorus quantitation.
Determination of Phosphorus Content:
Phosphorus content of eluted liposomes was determined by the process outlined below. 10 μL of liposome elution and a running buffer blank are added to a 5 mL glass vial containing 450 μL of a 8.9 M aqueous H2SO4 solution, the mixture is heated to 225° C. for 25 minutes in an aluminum heat block to hydrolyze POPC and cooled for 5 minutes. 200 μL of a 30% hydrogen peroxide aqueous solution is added to each vial and heated to 225° C. for 25 minutes. After cooling, the phosphorus content was determined using an Abcam Phosphate Assay kit, with buffer subtracted phosphorus levels determined against a standard curve of phosphate included in the kit. Liposomes were diluted to 1 mM phosphate in Running Buffer for use in assays after accounting for dilutions made during phospholipid digestion.
Determination of the Iron Transporting Rate Constant of the Ligands:
Determination of the rate at which a small molecule ligand liberates (transport) Ferric iron from liposomes is performed in clear bottom black 384-well plates on a Spectramax i3x set to read the absorbance at 562 nm in the kinetic mode every 60 seconds for 120 minutes. 1 μL of serially diluted DMSO stock solution of a small molecule ligand is added to wells in triplicate to give the final concentrations of 40, 20, 10, 5, 2.5, and 1.25 uM of the ligand at 80 μL final volume, followed by addition of 1 μL of 100 mM Ferrozine in water to give a final concentration of 1 mM ferrozine. 78 μL of liposomes diluted to 1 mM phosphorus in running buffer is added to wells as quickly as possible (using a digital repeater multichannel pipette) with the kinetic read initiated as rapidly as possible after addition of liposomes to all wells. Typically, eight compounds at six concentrations are tested in triplicate simultaneously. […]

| Structure (SMILES) | Caco2 shDMT1 transport FC @ 3 μM, 4 h [1] | Liposome Fe transport kefflux at 10 μM [2] |
| --- | --- | --- |
| O=c1ccccc(C2CCOCC2)c1O [drawing 183] | 1-5 | 0.1-5 |
| O=c1ccc(C2CC3CCC(C2)O3)ccc1O (centres unmarked) | 0.01-0.5 | 0.1-5 |
| O=c1c(F)cccc(C2CCCO2)c1O (centres unmarked) | 0.01-0.5 | 5-7.5 |
| Cc1cc(C2CC2)ccc(O)c1=O | 1-5 | 0.1-5 |
| Cc1cccc(C(C)C)c(O)c1=O [drawing 205] | 0.5-1 | 5-7.5 |
| O=c1ccc(OC2CC2)ccc1O | 0.5-1 | 10-25 |
| CCc1ccc(C)c(=O)c(O)c1 | 0.5-1 | 5-7.5 |
| O=c1ccccc(OC2COC2)c1O | 0.01-0.5 | 0.1-5 |
| Cc1ccc(F)c(=O)c([O-])c1.[Na+] | 0.01-0.5 | 0.1-5 |
| O=c1cccc(OC2CC2)cc1O | 1-5 | 5-7.5 |
| O=c1c(O)ccc(OC2CCC2)cc1F | 0.01-0.5 | 10-25 |
| CC(C)c1ccc(C(F)(F)F)c(=O)c(O)c1 | 0.01-0.5 | 5-7.5 |
| O=c1ccc(C2CCOCC2)ccc1O | 0.01-0.5 | 0.1-5 |
| CC(C)c1cccc(=O)c(O)c1F [drawing 177] | 0.01-0.5 | 10-25 |
| Cc1cc(C(C)C)ccc(O)c1=O [drawing 203] | 1-5 | 10-25 |
| O=c1ccc([C@@H]2CCC[C@H]2O)ccc1O | 0.01-0.5 | 7.5-10 |
| CC1(C)CCC(c2cccc(=O)c(O)c2)C1 (centres unmarked) | 0.01-0.5 | 5-7.5 |
| CCc1cccc(F)c(=O)c1O | 0.01-0.5 | 10-25 |
| COc1cccc(=O)c(O)c1 | 0.01-0.5 | 5-7.5 |
| Cc1ccc(C(C)C)cc(O)c1=O | 0.5-1 | 0.1-5 |

| Structure (SMILES) | Caco2 shDMT1 transport FC @ 3 μM, 4 h [1] | Liposome Fe transport kefflux at 10 μM [2] |
| --- | --- | --- |
| CCc1cccc(Cl)c(=O)c1O | 0.01-0.5 | 7.5-10 |
| O=c1ccccc(OC2CCC2)c1O [drawing 233] | 0.01-0.5 | 7.5-10 |
| O=c1ccc(C2CCC2)ccc1O | 0.01-0.5 | 10-25 |
| CCOc1cccc(=O)c(O)c1 | 0.5-1 | 5-7.5 |
| O=c1ccccc(C2CCOC2)c1O (centres unmarked) | 0.01-0.5 | <0.1 |
| O=c1ccccc(C2CCCO2)c1S (centres unmarked) | 0.01-0.5 | 7.5-10 |
| CC(=O)N1CCC(c2ccc(O)c(=O)cc2)CC1 | 0.01-0.5 | 5-7.5 |
| O=c1ccc(OC2COC2)ccc1O [drawing 187] | 0.01-0.5 | 5-7.5 |
| Cc1cccc(F)c(=O)c1O [drawing 207] | 0.01-0.5 | 10-25 |
| CC(C)Oc1ccc(O)c(=O)cc1 | 0.01-0.5 | 7.5-10 |
| O=c1ccccc([C@@H]2CCCO2)c1O | 0.1-5 | 7.5-10 |
| O=c1ccccc(C2CCCCO2)c1O (centres unmarked) | 1-5 | 0.1-5 |
| CC(C)c1cccc(F)c(=O)c1O [drawing 179] | 0.01-0.5 | 10-25 |
| Cc1ccc(C(F)(F)F)c(=O)c(O)c1 | 0.01-0.5 | 7.5-10 |
| Cc1cccc(C)c(=O)c1O | 1-5 | 10-25 |
| O=c1c(F)cccc(C2CCOCC2)c1O [drawing 211] | 0.01-0.5 | 5-7.5 |
| CCOC(=O)N1CCC(c2ccc(O)c(=O)cc2)CC1 | 0.01-0.5 | 5-7.5 |
| Cc1cccc(Cl)c(=O)c1O | 0.01-0.5 | 5-7.5 |
| Cc1ccc(C2CC2)cc(O)c1=O | 0.5-1 | 7.5-10 |
| CCc1ccc(O)c(=O)c(C)c1 | 1-5 | 5-7.5 |
